{
  "source": "paper PMC5218480",
  "about": "(PLoS ONE, 2017)",
  "tested_on": "MV-4-11 cells",
  "test": "Gene expression microarray analysis (Affymetrix PrimeView) and GSEA",
  "assay_type": "cell-based, human",
  "design": "RFU PODN (11730768_x_at) / Fold change /veh PODN (11730768_x_at) / RFU LINC00158 (11744669_a_at) / Fold change /veh LINC00158 (11744669_a_at) / RFU DUSP10 (11751237_a_at) / Fold change /veh DUSP10 (11751237_a_at) / RFU ID3 (11757404_x_at) / Fold change /veh ID3 (11757404_x_at) / RFU PLEKHG5 (11737974_s_at) / Fold change /veh PLEKHG5 (11737974_s_at) / RFU LRRC4B (11730491_at) / Fold change /veh LRRC4B (11730491_at) / RFU GIMAP4 (11747438_a_at) / Fold change /veh GIMAP4 (11747438_a_at) / RFU KRT8 (11758183_x_at) / Fold change /veh KRT8 (11758183_x_at) / RFU CNN1 (11734310_a_at) / Fold change /veh CNN1 (11734310_a_at) / RFU VPS37D (11726825_at) / Fold change /veh VPS37D (11726825_at) / RFU C10orf10 (11716522_x_at) / Fold change /veh C10orf10 (11716522_x_at) / RFU KIR2DL2 /// KIR2DL4 /// KIR2DL5A /// KIR2DL5B /// KIR2DS1 /// KIR2DS2 /// KIR2DS3 /// KIR2DS4 /// KIR3DL3 /// KIR3DL3 /// KIR3DS1 (11738374_at) / Fold change /veh KIR2DL2 /// KIR2DL4 /// KIR2DL5A /// KIR2DL5B /// KIR2DS1 /// KIR2DS2 /// KIR2DS3 /// KIR2DS4 /// KIR3DL3 /// KIR3DL3 /// KIR3DS1 (11738374_at) / RFU C1QL1 (11718748_at) / Fold change /veh C1QL1 (11718748_at) / RFU TMPRSS4 (11747572_a_at) / Fold change /veh TMPRSS4 (11747572_a_at) / RFU HAMP (11756126_x_at) / Fold change /veh HAMP (11756126_x_at) / RFU RNFT2 (11725882_a_at) / Fold change /veh RNFT2 (11725882_a_at) / RFU NR4A2 (11747474_a_at) / Fold change /veh NR4A2 (11747474_a_at) / RFU ABCC12 (11746883_a_at) / Fold change /veh ABCC12 (11746883_a_at) / RFU TMEM136 (11760407_x_at) / Fold change /veh TMEM136 (11760407_x_at) / RFU CLDN22 /// WWC2 (11732394_at) / Fold change /veh CLDN22 /// WWC2 (11732394_at) / RFU HLA-DPB1 (11760878_x_at) / Fold change /veh HLA-DPB1 (11760878_x_at) / RFU SPINT1 (11716480_a_at) / Fold change /veh SPINT1 (11716480_a_at) / RFU GAP43 (11754022_s_at) / Fold change /veh GAP43 (11754022_s_at) / RFU A4GNT (11735810_at) / Fold change /veh A4GNT (11735810_at) / RFU PRB3 (11715151_x_at) / Fold change /veh PRB3 (11715151_x_at) / RFU TUBB4B (11761932_at) / Fold change /veh TUBB4B (11761932_at) / RFU CAPN14 (11732068_a_at) / Fold change /veh CAPN14 (11732068_a_at) / RFU TMCC2 (11721928_a_at) / Fold change /veh TMCC2 (11721928_a_at) / RFU IRGQ (11745062_a_at) / Fold change /veh IRGQ (11745062_a_at) / RFU FAM174B (11720279_a_at) / Fold change /veh FAM174B (11720279_a_at) / RFU TMPRSS4 (11748680_a_at) / Fold change /veh TMPRSS4 (11748680_a_at) / RFU FAM212B (11763350_a_at) / Fold change /veh FAM212B (11763350_a_at) / RFU PLEKHG5 (11743358_a_at) / Fold change /veh PLEKHG5 (11743358_a_at) / RFU ZSCAN30 (11745921_a_at) / Fold change /veh ZSCAN30 (11745921_a_at) / RFU CMKLR1 (11741424_a_at) / Fold change /veh CMKLR1 (11741424_a_at) / RFU LOC101060620 /// MAPK8IP1 (11723275_at) / Fold change /veh LOC101060620 /// MAPK8IP1 (11723275_at) / RFU SPTSSB (11747773_x_at) / Fold change /veh SPTSSB (11747773_x_at) / RFU PRSS12 (11739890_at) / Fold change /veh PRSS12 (11739890_at) / RFU BIN1 (11741810_x_at) / Fold change /veh BIN1 (11741810_x_at) / RFU WNT11 (11732464_a_at) / Fold change /veh WNT11 (11732464_a_at) / RFU C10orf10 (11716521_a_at) / Fold change /veh C10orf10 (11716521_a_at) / RFU C5orf56 (11738089_at) / Fold change /veh C5orf56 (11738089_at) / RFU CYB561 (11721691_x_at) / Fold change /veh CYB561 (11721691_x_at) / RFU ANKRD19P (11752326_a_at) / Fold change /veh ANKRD19P (11752326_a_at) / RFU OR2T12 /// OR2T33 /// OR2T8 (11738714_s_at) / Fold change /veh OR2T12 /// OR2T33 /// OR2T8 (11738714_s_at) / RFU VCAN (11748164_a_at) / Fold change /veh VCAN (11748164_a_at) / RFU JSRP1 (11732532_at) / Fold change /veh JSRP1 (11732532_at) / RFU KRTAP10-11 (11738290_x_at) / Fold change /veh KRTAP10-11 (11738290_x_at) / RFU MYO3A (11730013_a_at) / Fold change /veh MYO3A (11730013_a_at) / RFU EBF3 (11725865_a_at) / Fold change /veh EBF3 (11725865_a_at) / RFU CAMK2N1 (11719241_x_at) / Fold change /veh CAMK2N1 (11719241_x_at) / RFU C5orf56 (11738088_a_at) / Fold change /veh C5orf56 (11738088_a_at) / RFU OLFML3 (11715873_a_at) / Fold change /veh OLFML3 (11715873_a_at) / RFU LOC100653217 /// NTM (11731650_a_at) / Fold change /veh LOC100653217 /// NTM (11731650_a_at) / RFU MAPK11 (11762145_a_at) / Fold change /veh MAPK11 (11762145_a_at) / RFU FIZ1 (11724087_x_at) / Fold change /veh FIZ1 (11724087_x_at) / RFU OASL (11726364_x_at) / Fold change /veh OASL (11726364_x_at) / RFU SOX15 (11748057_x_at) / Fold change /veh SOX15 (11748057_x_at) / RFU CD79A (11719716_a_at) / Fold change /veh CD79A (11719716_a_at) / RFU HIST1H1D (11736915_at) / Fold change /veh HIST1H1D (11736915_at) / RFU CASKIN2 (11723855_a_at) / Fold change /veh CASKIN2 (11723855_a_at) / RFU LOC730098 (11760151_x_at) / Fold change /veh LOC730098 (11760151_x_at) / RFU OR4N2 (11742367_at) / Fold change /veh OR4N2 (11742367_at) / RFU PRRT2 (11749266_a_at) / Fold change /veh PRRT2 (11749266_a_at) / RFU SNX32 (11753110_a_at) / Fold change /veh SNX32 (11753110_a_at) / RFU CDHR5 (11726645_a_at) / Fold change /veh CDHR5 (11726645_a_at) / RFU RCAN1 (11760418_a_at) / Fold change /veh RCAN1 (11760418_a_at) / RFU FAM167A (11723789_a_at) / Fold change /veh FAM167A (11723789_a_at) / RFU FAM26E (11764081_at) / Fold change /veh FAM26E (11764081_at) / RFU ISYNA1 (11749810_s_at) / Fold change /veh ISYNA1 (11749810_s_at) / RFU ACY1 (11761880_at) / Fold change /veh ACY1 (11761880_at) / RFU 11764098_at / Fold change /veh 11764098_at / RFU SAMD14 (11745864_x_at) / Fold change /veh SAMD14 (11745864_x_at) / RFU NPB (11741838_a_at) / Fold change /veh NPB (11741838_a_at) / RFU TMPRSS6 (11731388_a_at) / Fold change /veh TMPRSS6 (11731388_a_at) / RFU KRTAP10-2 (11738614_at) / Fold change /veh KRTAP10-2 (11738614_at) / RFU ARHGAP8 /// PRR5-ARHGAP8 (11727945_x_at) / Fold change /veh ARHGAP8 /// PRR5-ARHGAP8 (11727945_x_at) / RFU KRTAP5-7 /// NADSYN1 (11734609_at) / Fold change /veh KRTAP5-7 /// NADSYN1 (11734609_at) / RFU RASL12 (11751679_a_at) / Fold change /veh RASL12 (11751679_a_at) / RFU CDKN2B (11736163_a_at) / Fold change /veh CDKN2B (11736163_a_at) / RFU PRF1 (11729649_at) / Fold change /veh PRF1 (11729649_at) / RFU, ZNF638 /// ZNF638-IT1 / Fold change vs veh, ZNF638 /// ZNF638-IT1 / RFU, PANK3 / Fold change vs veh, PANK3 / RFU, SH3YL1 / Fold change vs veh, SH3YL1 / RFU, ZEB2 / Fold change vs veh, ZEB2 / RFU, NRIP1 / Fold change vs veh, NRIP1 / RFU, PTTG1IP / Fold change vs veh, PTTG1IP / RFU, CAPN2 / Fold change vs veh, CAPN2 / RFU, MED14 / Fold change vs veh, MED14 / RFU, SNORA58 / Fold change vs veh, SNORA58 / RFU, C1orf63 / Fold change vs veh, C1orf63 / RFU, LRRFIP1 / Fold change vs veh, LRRFIP1 / RFU, NDUFAF7 / Fold change vs veh, NDUFAF7 / RFU, SLC12A2 / Fold change vs veh, SLC12A2 / RFU, IBTK / Fold change vs veh, IBTK / RFU, ESF1 / Fold change vs veh, ESF1 / Fold change vs veh, TMEM50B / RFU, TAOK1 / Fold change vs veh, TAOK1 / RFU, ACBD3 / Fold change vs veh, ACBD3 / RFU, TMA16 / Fold change vs veh, TMA16 / RFU, RWDD3 / Fold change vs veh, RWDD3 / RFU, BCAT1 / Fold change vs veh, BCAT1 / RFU, EDEM3 / Fold change vs veh, EDEM3 / RFU, TMEM33 / Fold change vs veh, TMEM33 / RFU, WDR75 / Fold change vs veh, WDR75 / RFU, AHCTF1 / Fold change vs veh, AHCTF1 / RFU, TFRC / Fold change vs veh, TFRC / RFU, ZDHHC17 / Fold change vs veh, ZDHHC17 / RFU, NOM1 / Fold change vs veh, NOM1 / RFU, ARL8B / Fold change vs veh, ARL8B / RFU, ZBTB11 / Fold change vs veh, ZBTB11 / RFU, TAMM41 / Fold change vs veh, TAMM41 / RFU, KIAA1704 /// LOC100996395 / Fold change vs veh, KIAA1704 /// LOC100996395 / RFU, ING1 / Fold change vs veh, ING1 / RFU, TRMT61B / Fold change vs veh, TRMT61B / RFU, FUBP3 / Fold change vs veh, FUBP3 / RFU, TP53 / Fold change vs veh, TP53 / RFU, TNKS2 / Fold change vs veh, TNKS2 / RFU, ZFP14 / Fold change vs veh, ZFP14 / RFU, ACTR2 / Fold change vs veh, ACTR2 / RFU, PPP3R1 / Fold change vs veh, PPP3R1 / RFU, PIK3R1 / Fold change vs veh, PIK3R1 / RFU, HNRNPA1 / Fold change vs veh, HNRNPA1 / RFU, RNF170 / Fold change vs veh, RNF170 / RFU, ZNF28 / Fold change vs veh, ZNF28 / RFU, RNGTT / Fold change vs veh, RNGTT / RFU, OGT / Fold change vs veh, OGT / RFU, BRD1 / Fold change vs veh, BRD1 / RFU, MARS / Fold change vs veh, MARS / RFU, ZNF655 / Fold change vs veh, ZNF655 / RFU, FAHD1 / Fold change vs veh, FAHD1 / RFU, BDP1 / Fold change vs veh, BDP1 / RFU, LRRCC1 / Fold change vs veh, LRRCC1 / RFU, ARID1A / Fold change vs veh, ARID1A / RFU, ZNF146 / Fold change vs veh, ZNF146 / RFU, ZNF330 / Fold change vs veh, ZNF330 / RFU, GPN3 / Fold change vs veh, GPN3 / RFU, C9orf123 / Fold change vs veh, C9orf123 / RFU, N4BP2L2 / Fold change vs veh, N4BP2L2 / RFU, ARFIP1 / Fold change vs veh, ARFIP1 / RFU, FAM179B / Fold change vs veh, FAM179B / RFU, BCL10 / Fold change vs veh, BCL10 / RFU, UHRF1BP1L / Fold change vs veh, UHRF1BP1L / RFU, BET1 / Fold change vs veh, BET1 / RFU, CNOT2 / Fold change vs veh, CNOT2 / RFU, ZNF268 / Fold change vs veh, ZNF268 / Fold change vs veh, ZNF507 / RFU, DGCR2 / Fold change vs veh, DGCR2 / RFU, WDSUB1 / Fold change vs veh, WDSUB1 / Fold change vs veh, HSP90B1 /// MIR3652 / RFU, ADSS / Fold change vs veh, ADSS / RFU, GK / Fold change vs veh, GK / RFU, ZNF148 / Fold change vs veh, ZNF148 / RFU, TAF9 / Fold change vs veh, TAF9 / RFU, SLC1A5 / Fold change vs veh, SLC1A5 / RFU, SLMO2 / Fold change vs veh, SLMO2 / RFU, ABCC4 / Fold change vs veh, ABCC4 / RFU, LOC101060439 /// RAP1B / Fold change vs veh, LOC101060439 /// RAP1B / RFU, RFX7 / Fold change vs veh, RFX7 / RFU, GTPBP10 / Fold change vs veh, GTPBP10 / RFU, CNEP1R1 / Fold change vs veh, CNEP1R1 / RFU, BIVM-ERCC5 /// ERCC5 / Fold change vs veh, BIVM-ERCC5 /// ERCC5 / RFU, ILF3 / Fold change vs veh, ILF3 / RFU 11762660_at / Fold change /veh 11762660_at / RFU VCAN (11757783_s_at) / Fold change /veh VCAN (11757783_s_at) / RFU DDX43 (11728927_at) / Fold change /veh DDX43 (11728927_at) / RFU KRT8 (11758188_x_at) / Fold change /veh KRT8 (11758188_x_at) / RFU NKD1 (11759106_at) / Fold change /veh NKD1 (11759106_at) / RFU SRD5A1 (11742802_a_at) / Fold change /veh SRD5A1 (11742802_a_at) / RFU TPSAB1 /// TPSB2 (11721975_s_at) / Fold change /veh TPSAB1 /// TPSB2 (11721975_s_at) / RFU GSTM3 (11746129_a_at) / Fold change /veh GSTM3 (11746129_a_at) / RFU IL23R (11737362_x_at) / Fold change /veh IL23R (11737362_x_at) / RFU TMEM51 (11727254_a_at) / Fold change /veh TMEM51 (11727254_a_at) / RFU PIWIL2 (11732686_x_at) / Fold change /veh PIWIL2 (11732686_x_at) / RFU ORM1 (11744905_x_at) / Fold change /veh ORM1 (11744905_x_at) / RFU CCDC152 (11743942_at) / Fold change /veh CCDC152 (11743942_at) / RFU ECM1 (11717891_a_at) / Fold change /veh ECM1 (11717891_a_at) / RFU IL23R (11748794_a_at) / Fold change /veh IL23R (11748794_a_at) / RFU TNFAIP8L3 (11732012_x_at) / Fold change /veh TNFAIP8L3 (11732012_x_at) / RFU MBOAT4 (11741988_at) / Fold change /veh MBOAT4 (11741988_at) / RFU 11764193_at / Fold change /veh 11764193_at / RFU TMEM53 (11763286_at) / Fold change /veh TMEM53 (11763286_at) / RFU MAGEB2 (11727129_at) / Fold change /veh MAGEB2 (11727129_at) / RFU TMEM200A (11744735_a_at) / Fold change /veh TMEM200A (11744735_a_at) / RFU CCDC152 (11751479_a_at) / Fold change /veh CCDC152 (11751479_a_at) / RFU FAM211A (11726209_a_at) / Fold change /veh FAM211A (11726209_a_at) / RFU RGS16 (11746705_a_at) / Fold change /veh RGS16 (11746705_a_at) / RFU VCAN (11755009_s_at) / Fold change /veh VCAN (11755009_s_at) / RFU RHOB (11743442_s_at) / Fold change /veh RHOB (11743442_s_at) / RFU RGS16 (11720943_a_at) / Fold change /veh RGS16 (11720943_a_at) / RFU RGS16 (11720944_at) / Fold change /veh RGS16 (11720944_at) / RFU, VPS4B / Fold change vs veh, VPS4B / RFU, CREB1 / Fold change vs veh, CREB1 / RFU, DNAJC13 / Fold change vs veh, DNAJC13 / RFU, GNAQ / Fold change vs veh, GNAQ / RFU, CDK5R1 / Fold change vs veh, CDK5R1 / RFU, ZRANB3 / Fold change vs veh, ZRANB3 / RFU, CUL4A / Fold change vs veh, CUL4A / RFU, CCNY / Fold change vs veh, CCNY / RFU, UFL1 / Fold change vs veh, UFL1 / RFU, COG3 / Fold change vs veh, COG3 / RFU, DIAPH2 / Fold change vs veh, DIAPH2 / RFU, SKA2 / Fold change vs veh, SKA2 / RFU, AFF3 / Fold change vs veh, AFF3 / RFU, LMF1 / Fold change vs veh, LMF1 / RFU, IPO11 / Fold change vs veh, IPO11 / RFU, DFFB / Fold change vs veh, DFFB / RFU, FOXP1 / Fold change vs veh, FOXP1 / RFU, CARD8 / Fold change vs veh, CARD8 / RFU, STRN3 / Fold change vs veh, STRN3 / RFU, ADK / Fold change vs veh, ADK / RFU, RASSF2 / Fold change vs veh, RASSF2 / RFU, WIPF1 / Fold change vs veh, WIPF1 / RFU, LARP1B / Fold change vs veh, LARP1B / RFU, RASA1 / Fold change vs veh, RASA1 / RFU, RB1 / Fold change vs veh, RB1 / RFU, PPFIA1 / Fold change vs veh, PPFIA1 / RFU, MAT2A / Fold change vs veh, MAT2A / RFU, CCT5 / Fold change vs veh, CCT5 / RFU, WDR92 / Fold change vs veh, WDR92 / RFU, CUX1 / Fold change vs veh, CUX1 / RFU, TTC7A / Fold change vs veh, TTC7A / RFU, TMEM135 / Fold change vs veh, TMEM135 / RFU, DEPTOR / Fold change vs veh, DEPTOR / RFU, CPM / Fold change vs veh, CPM / RFU, DNAJB6 / Fold change vs veh, DNAJB6 / RFU, CACNA2D3 / Fold change vs veh, CACNA2D3 / RFU, DTX4 / Fold change vs veh, DTX4 / RFU, TFCP2 / Fold change vs veh, TFCP2 / RFU, GMCL1 /// GMCL1P1 / Fold change vs veh, GMCL1 /// GMCL1P1 / RFU, AEBP2 / Fold change vs veh, AEBP2 / RFU, SNHG1 /// SNORD22 /// SNORD25 /// SNORD26 /// SNORD27 /// SNORD28 /// SNORD29 /// SNORD31 / Fold change vs veh, SNHG1 /// SNORD22 /// SNORD25 /// SNORD26 /// SNORD27 /// SNORD28 /// SNORD29 /// SNORD31 / Fold change (Aza/veh), C12orf56 (ProbeSet 11735607_a_at) / Fold change (ACY-1035/veh), C12orf56 (ProbeSet 11735607_a_at) / Fold change (Aza/veh), FGFR1OP (ProbeSet 11751329_s_at) / Fold change (ACY-1035/veh), FGFR1OP (ProbeSet 11751329_s_at) / Fold change (Aza/veh), VPS36 (ProbeSet 11739960_a_at) / Fold change (ACY-1035/veh), VPS36 (ProbeSet 11739960_a_at) / RFU SYPL1 (11715823_x_at) / Fold change /veh SYPL1 (11715823_x_at) / RFU IGFBP7 (11715501_s_at) / Fold change /veh IGFBP7 (11715501_s_at) / RFU REEP3 (11722064_at) / Fold change /veh REEP3 (11722064_at) / RFU IGLL1 (11728026_x_at) / Fold change /veh IGLL1 (11728026_x_at): dose or concentration left out as unconfirmed",
  "conditions": "MV-4-11 cells, 48 hours",
  "data": [
    {"smiles": "Nc1ccc(-c2cccs2)cc1NC(=O)c1ccc2c(c1)cc(C1CC1)n2CCN1CCOCC1", "note": "[ACY-1035]", "values": [
      {"measurement": "Fold change /veh RASL12 (11751679_a_at)", "result": 1.18}
    ]}
  ]
}
